One series deals with T1, human TLR7 (Homo sapiens, UniProt Q9NYK1).
T1 sequence (Q9NYK1 27-1049): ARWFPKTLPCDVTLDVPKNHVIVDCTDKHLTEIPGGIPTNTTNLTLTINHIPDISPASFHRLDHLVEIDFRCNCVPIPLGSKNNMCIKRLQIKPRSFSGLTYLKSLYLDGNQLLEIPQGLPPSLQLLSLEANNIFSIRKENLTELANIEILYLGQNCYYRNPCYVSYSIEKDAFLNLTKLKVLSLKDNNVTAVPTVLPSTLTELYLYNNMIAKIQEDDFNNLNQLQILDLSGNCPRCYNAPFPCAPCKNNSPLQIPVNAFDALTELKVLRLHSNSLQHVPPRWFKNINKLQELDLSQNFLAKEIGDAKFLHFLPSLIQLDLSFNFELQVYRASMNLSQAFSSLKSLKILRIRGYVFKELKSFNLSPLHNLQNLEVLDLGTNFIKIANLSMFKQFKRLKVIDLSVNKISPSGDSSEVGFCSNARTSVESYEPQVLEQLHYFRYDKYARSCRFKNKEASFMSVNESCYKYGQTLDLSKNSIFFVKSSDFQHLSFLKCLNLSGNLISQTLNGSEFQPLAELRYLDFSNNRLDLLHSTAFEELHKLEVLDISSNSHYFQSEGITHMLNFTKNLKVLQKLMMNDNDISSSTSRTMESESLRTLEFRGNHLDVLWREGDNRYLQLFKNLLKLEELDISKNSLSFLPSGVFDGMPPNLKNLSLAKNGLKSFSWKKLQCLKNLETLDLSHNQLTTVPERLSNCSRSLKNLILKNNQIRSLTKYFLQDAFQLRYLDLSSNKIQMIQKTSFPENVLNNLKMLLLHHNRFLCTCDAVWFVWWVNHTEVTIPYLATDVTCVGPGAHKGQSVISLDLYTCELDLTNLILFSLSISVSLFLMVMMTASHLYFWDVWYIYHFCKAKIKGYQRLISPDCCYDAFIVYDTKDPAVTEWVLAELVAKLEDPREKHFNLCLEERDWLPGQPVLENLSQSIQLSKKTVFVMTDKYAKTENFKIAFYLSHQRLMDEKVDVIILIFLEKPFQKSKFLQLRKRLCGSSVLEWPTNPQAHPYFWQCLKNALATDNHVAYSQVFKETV
Briefly: HEK293-Blue-hTLR-7 cells assay (SEAP reporter, R848 stimulation). To be noted: HEK293-Blue-hTLR7 cells, R848 ligand, 20 hrs incubation; read-out: HEK/hTLR7 IC50. It is filed as cell-based. As for the experimental part:
The following tests were carried out in order to determine the activity of the compounds of formula (I) in HEK293-Blue-hTLR-7/8/9 cells assay.
A stable HEK293-Blue-hTLR-7 cell line was purchased from InvivoGen (Cat.#: hkb-htlr7, San Diego, California, USA). These cells were originally designed for studying the stimulation of human TLR7 by monitoring the activation of NF-κB. A SEAP (secreted embryonic alkaline phosphatase) reporter gene was placed under the control of the IFN-β minimal promoter fused to five NF-κB and AP-1-binding sites. The SEAP was induced by activating NF-κB and AP-1 via stimulating HEK-Blue hTLR7 cells with TLR7 ligands. Therefore the reporter expression was declined by TLR7 antagonist under the stimulation of a ligand, such as R848 (Resiquimod), for incubation of 20 hrs. The cell culture supernatant SEAP reporter activity was determined using QUANTI-Blue™ kit (Cat.#: rep-qb1, Invivogen, San Diego, Ca, USA) at a wavelength of 640 nm, a detection medium that turns purple or blue in the presence of alkaline phosphatase.
HEK293-Blue-hTLR7 cells were incubated at a density of 250,000˜450,000 cells/mL in a volume of 170 μL in a 96-well plate in Dulbecco's Modified Eagle's medium (DMEM) containing 4.5 g/L glucose, 50 U/mL penicillin, […], […], 2 mM L-glutamine, 10% (v/v) heat-inactivated fetal bovine serum with addition of 20 μL test compound in a serial dilution in the presence of final DMSO at 1% and 10 μL of 20 uM R848 in above DMEM, perform incubation under 37° C. in a CO2 incubator for 20 hrs. Then 20 μL of the supernatant from each well was incubated with […] Quanti-blue substrate solution at 37° C. for 2 hrs and the absorbance was read at 620-655 nm using a spectrophotometer. The signalling pathway that TLR7 activation leads to downstream NF-κB activation has been widely accepted, and therefore similar reporter assay was modified for evaluating TLR7 antagonist.

For a further series, the target named is T2, CYP2D6 (Homo sapiens, UniProt P10635).
T2 construct: tissue BD-Gentest 452117; host or cells: human liver microsomes
The series can be described thus: CYP inhibition assay in human liver microsome. It is filed as in vitro ADME. To be noted: liver microsomes, probe dextromethorphan, 10 μM compound, dextromethorphan substrate, percentage inhibition < 0: not or weak inhibitor, read-out: CYP 2D6 inhibition % @10 μM. The method, then:
This is a high throughput screening assay used for assessment of reversible inhibition of CYP2D6 activity of test compounds in human liver microsome (HLM) in early discovery stage.
10 mM DMSO stock solutions of test compounds were diluted in DMSO to generate 2 mM intermediate stock solution. 250 nL of intermediate stock solution were transferred in duplicate into 3 separate 384 well microtitre plates (assay-ready plates). A mixture of HLM and each substrate was made up. 45 μL of HLM substrate mix was then transferred to each well of an assay ready plate and mixed. The negative (solvent) and positive control (standard inhibitor for CYP 2D6) were included in each assay ready plate. The assay ready plate was warmed to 37° C. in an incubator over 10 minutes. 5μL pre-warmed NADPH regenerating system was added to each incubation well to start the reaction. Final incubation volume was 50 μL. The assay plate then was placed back in the 37° C. incubator. After 10 minutes incubation, incubates were quenched by addition of 50 μL 100% acetonitrile containing internal standards (20 ng/mL D3-Dextrorphan). The supernatants were collected for RapidFire/MS/MS analysis.
RapidFire online solid phase extraction/sample injection system (Agilent) coupled with API4000 triple quadrupole mass spectrometer (AB Sciex) were used for sample analysis. The mobile phase composed of acetonitrile and water supplemented with 0.1% formic acid. A C4 solid phase extraction cartridge is used for sample separation. MS detection is achieved in positive ion MRM mode.
Peak areas for substrate, metabolite and internal standard are determined using the RapidFire integrator software (version 3.6.12009.12296). Peak area ratios (PAR) of metabolite and internal standard (stable-labelled metabolite) are then calculated. The measurement window for each experiment is then defined:
PAR (0% activity)=average PAR for all incubations containing concentrated inhibitor;
Par (100% activity)=average PAR for all incubations containing no inhibitor (DMSO controls);
% Activity (test inhibitor)
=[PAR(test inhibitor)-PAR(0% activity)]/[PAR(100% activity)-PAR(0% activity)];
% Inhibition (test inhibitor)=100-% Activity (test inhibitor).
In general terms: Liver microsomes are a subcellular fraction often used to study metabolism.

Here are results for 3 molecules from patent US11952363B2, “Piperazine compounds for the treatment of autoimmune disease” (Hoffmann-La Roche Inc., priority 2018, dated 2024).

What is called inhibition is the share of the control response that was lost under treatment.

T2 sequence (P10635 whole entry): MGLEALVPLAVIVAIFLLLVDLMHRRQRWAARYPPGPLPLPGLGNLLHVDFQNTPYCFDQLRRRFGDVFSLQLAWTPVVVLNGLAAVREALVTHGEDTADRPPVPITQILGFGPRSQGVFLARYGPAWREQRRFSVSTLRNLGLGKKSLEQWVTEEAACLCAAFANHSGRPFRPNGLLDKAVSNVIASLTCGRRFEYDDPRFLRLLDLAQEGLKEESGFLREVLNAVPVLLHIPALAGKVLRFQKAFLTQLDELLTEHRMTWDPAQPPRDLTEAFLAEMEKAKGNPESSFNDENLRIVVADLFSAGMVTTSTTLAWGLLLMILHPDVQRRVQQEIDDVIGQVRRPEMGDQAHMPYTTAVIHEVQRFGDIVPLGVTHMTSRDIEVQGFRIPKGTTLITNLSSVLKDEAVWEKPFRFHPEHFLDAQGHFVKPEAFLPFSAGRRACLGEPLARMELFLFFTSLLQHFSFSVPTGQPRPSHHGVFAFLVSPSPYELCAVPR

Take `C[C@@H]1CN(c2ccc(C#N)c3ncccc23)C[C@H](C)N1Cc1ccc(N2CCN(C(=O)C3CCCN3)CC2)cn1` (stereo partly drawn) [Example 10, 5-[(3R,5S)-3,5-Dimethyl-4-[[5-[4-(pyrrolidine-2-carbonyl)piperazin-1-yl]-2-pyridyl]methyl]piperazin-1-yl]quinoline-8-carbonitrile]: on human TLR7, the IC50 worked out at 69 nM. The inhibition at 10 min, 10 µM on CYP2D6 came out at 4.5%.

Turning to `CC1CN(c2ccc(C#N)c3ncccc23)CCN1CC(=O)Nc1ccc2c(c1)CCNC2` (stereo not drawn) [Example 18, 2-[4-(8-Cyano-5-quinolyl)-2-methyl-piperazin-1yl]-N-(1,2,3,4-tetrahydroisoquinolin-6-yl)acetamide], the IC50 at human TLR7 was determined as 60 nM. The inhibition at 10 min, 10 µM at CYP2D6 turned out to be 12.5%.

On to `C[C@@H]1CN(c2ccc(C#N)c3ncccc23)C[C@H](C)N1Cc1ccc(N2CCNCC2)cn1` [Example 5, 5-[(3S,5R)-3,5-Dimethyl-4-[(5-piperazin-1-yl-2-pyridyl)methyl]piperazin-1-yl]quinoline-8-carbonitrile], for which the IC50 at human TLR7 was determined as 12 nM. At CYP2D6, the inhibition at 10 min, 10 µM was determined as 5.5%.
